16 molecules from US6444668B1 (Wyeth, priority 1999, dated 2002) can be followed below.

One may read the melting point as the temperature, or range, at which the solid turns liquid.

Each structure is given as a SMILES string.

The molecule `COc1cccc(-c2ccc3c(c2)C(C)(C)OC(=O)N3)c1` [Example 6, 6-(3-Methoxy-phenyl)-4,4dimethyl-1,4-dihydro-benzo[d][1,3]-oxazin-2-one] yielded a melting point of 164 to 165 °C.
Next, `CC1(C)OC(=O)Nc2c(F)cc(-c3ccc(F)c(Cl)c3)cc21` [Example 71, 6-(3-Chloro-4-fluoro-phenyl)-8-fluoro-4,4-dimethyl-1,4-dihydrobenzo[d][1,3]-oxazin-2-one]: 246 to 248 °C; `CC#CC1(C2CC2)OC(=O)Nc2ccc(-c3cccc(Cl)c3)cc21` (stereo not shown) [Example 42, 6-(3-Chloro-phenyl)-4-cyclopropyl-4-propyn-1-yl-1,4-dihydro-benzo [d][1,3]oxazin-2-one]: 178 to 179 °C; `CC1(C)OC(=O)Nc2ccc(-c3ccccc3CC#N)cc21` [Example 136, 2-(4,4-Dimethyl 2-oxo-1,4-dihydro-2H-benzo[d][1,3]-oxazin-6-yl)phenylacetonitrile]: 176 to 179 °C.
Next, `CC#CC1(C#CC)OC(=O)Nc2ccc(-c3cccc(Cl)c3)cc21` [Example 44, 6(3-Chloro-phenyl)-4,4dipropyn-1-yl-1,4dihydrobenzo[d][1,3]oxazin-2-one]: 151 °C (dec.); `CC1(C)OC(=O)Nc2ccc(-c3ccc(Cl)cc3)cc21` [Example 8, 6-(4-Chloro-phenyl)-4,4-dimethyl-1,4-dihydro-benzo[d][1,3]-oxazin-2-one]: 255 to 257 °C.
As for `CC1(C)OC(=O)Nc2ccc(-c3cc(CC#N)ccc3F)cc21` [Example 134, 3-(4,4-Dimethyl-2-oxo-1,4-dihydro2H-benzo[d][1,3]-oxazin-6-yl)-4-fluoro-phenylacetonitrile], the figure is 184 to 187 °C.
For the molecule `CC1(C)OC(=O)Nc2ccc(-c3cc(F)cc(F)c3)cc21` [Example 60, 6-(3,5-difluoro-phenyl)-4,4-dimethyl-1,4-dihydrobenzo-[d][1,3]oxazin-2-one], the melting point fell in the range of 218 to 219 °C.
For the molecule `COc1cc(F)cc(-c2ccc3c(c2)C(C)(C)OC(=O)N3)c1` [Example 82, 6-(3-Fluoro-5-methoxy-phenyl)-4,4-dimethyl-1,4-dihydro-benzo[d][1,3]oxazin-2-one], the melting point is 181 to 182 °C.
On to `O=C1Nc2ccc(-c3cccc([N+](=O)[O-])c3)cc2C2(CCCCC2)O1` [Example 32, 6-(3—Nitrophenyl)-spiro[4H-3,1-benzoxazine-4,1′-cyclohexan]-2(1H)-one], for which the melting point was 245 to 246 °C.
As for `CC1(C)OC(=O)Nc2ccc(-c3cccc(C(=O)c4ccccc4)c3)cc21` [Example 51, 6-(3-Benzoyl-phenyl)-4,4-dimethyl-1,4dihydro-benzo[d][1,3]-oxazin-2-one], the figure is 156 to 157 °C; as for `C#Cc1cccc(-c2ccc3c(c2)C(C)(C)OC(=O)N3)c1` [Example 74, 6-(3-Ethynyl-phenyl)-4,4-dimethyl-1,4dihydro-benzo[d][1,3]-oxazin-2-one], 171 to 172 °C.
Molecule `CC1(C)OC(=O)Nc2c(Br)cc(-c3ccc(F)c(Cl)c3)cc21` [Example 123, 8-Bromo-6-(3-chloro-4-fluorophenyl)-4,4-dimethyl-1,4-dihydro-2H-3,1-benzoxazin-2-one] came in with a melting point of 194 to 195 °C.
Next, `CN1C(=O)OC(C)(C)c2cc(-c3cccc(Br)c3)ccc21` [Example 126, 6-(3-Bromophenyl)-1,4,4-trimethyl-1,4-dihydro-2H-3,1-benzoxazin-2-one]: 142 to 143 °C.
Regarding `COc1cccc(-c2ccc3c(c2)C2(CCC2)OC(=O)N3)c1` [Example 122, 6-(3-Methoxyphenyl)spiro[4H-3,1-benzoxazine-4,1-cyclobutan]-2(1H)-one], the melting point is 145 to 146 °C.
Next, `CC1(C)OC(=O)Nc2ccc(-c3cc([N+](=O)[O-])cc([N+](=O)[O-])c3)cc21`: 297 to 298 °C.
